Measured values taken from ChEMBL document CHEMBL3045663, “Synthesis and Activity of Novel Acaricidal/Insecticidal 2, 4-Diphenyl-1, 3-oxazolines” (J Pestic Sci, 2002).
Converted amounts (≈) assume the structure as drawn.

Legend:
Assay type in all cases: functional
[1] = tested on: Myzus persicae; assay: Insecticidal activity against Myzus persicae (green peach aphid) in compound treated radish leaf assessed as mortality at 500 ppm
[2] = tested on: Plutella xylostella; assay: Insecticidal activity against Plutella xylostella (diamondback moth) in compound treated radish leaf assessed as mortality at 500 ppm
[3] = tested on: Nephotettix cincticeps; assay: Insecticidal activity against Nephotettix cincticeps (green rice leafhopper) in compound treated rice seedlings assessed as mortality at 500 ppm
[4] = tested on: Tetranychus urticae; assay: Acaricidal activity against Tetranychus urticae (two-spotted spider mite) in compound treated kidney bean leaf assessed as mortality of egg at 1000 ppm at 24 degC measured after 1 week; conditions: 168 h
[5] = tested on: Tetranychus urticae; assay: Acaricidal activity against Tetranychus urticae (two-spotted spider mite) in compound treated kidney bean leaf assessed as larvicidal activity

Structure (SMILES)	mortality at 500 ppm [1]	mortality at 500 ppm [2]	mortality at 500 ppm [3]	mortality at 1000 ppm [4]	LC50 [5]
Clc1ccc(C2=NC(c3ccccc3)CO2)cc1 (configuration not stated)	0%	60%	0%	0%	100 µg/mL (≈ 388 µM)
Fc1cccc(Cl)c1C1=NC(c2ccccc2)CO1 (configuration not stated)	10%	0%	35%	0%	0.01 µg/mL (≈ 0.0363 µM)
Cc1cccc(C2=NC(c3ccccc3)CO2)c1 (configuration not stated)	0%	0%	10%	0%	> 1000 µg/mL
Clc1cccc(C2=NC(c3ccccc3)CO2)c1Cl (configuration not stated)	0%	0%	0%	0%	10 µg/mL (≈ 34.2 µM)
COc1ccc(C2=NC(c3ccccc3)CO2)cc1 (configuration not stated)	0%	0%	10%	0%	100 µg/mL (≈ 395 µM)
Clc1cccc(C2=NC(c3ccccc3)CO2)c1 (configuration not stated)	0%	60%	0%	10%	100 µg/mL (≈ 388 µM)
Ic1ccccc1C1=NC(c2ccccc2)CO1 (configuration not stated)	0%	35%	0%	10%	1 µg/mL (≈ 2.86 µM)
Cc1ccc(C2=NC(c3ccccc3)CO2)cc1 (configuration not stated)	0%	0%	0%	0%	> 1000 µg/mL
CCOc1cccc(C2COC(c3c(F)cccc3F)=N2)c1 (configuration not stated)	0%	0%	0%	–	1 µg/mL (≈ 3.3 µM)
Fc1cccc(F)c1C1=NCC(c2ccccc2)O1 (configuration not stated)	85%	35%	10%	0%	1 µg/mL (≈ 3.86 µM)
CC1(c2ccccc2)COC(c2c(F)cccc2F)=N1 (configuration not stated)	0%	0%	0%	0%	100 µg/mL (≈ 366 µM)
Fc1cccc(F)c1-c1nc(-c2ccccc2)co1	0%	0%	10%	0%	100 µg/mL (≈ 389 µM)
Fc1cccc(F)c1-c1ncc(-c2ccccc2)o1	0%	0%	0%	0%	100 µg/mL (≈ 389 µM)
Fc1cccc(F)c1C1=NC(c2ccccc2)CS1 (configuration not stated)	0%	0%	0%	0%	10 µg/mL (≈ 36.3 µM)
Fc1cccc(F)c1C1=NCC(c2ccccc2)S1 (configuration not stated)	0%	0%	0%	0%	100 µg/mL (≈ 363 µM)
CCc1ccc(C2COC(c3c(F)cccc3F)=N2)cc1 (configuration not stated)	100%	0%	60%	–	0.001 µg/mL (≈ 0.00348 µM)
COc1ccc(C2COC(c3c(F)cccc3F)=N2)cc1 (configuration not stated)	85%	0%	10%	–	1 µg/mL (≈ 3.46 µM)
CCOc1ccc(C2COC(c3c(F)cccc3F)=N2)cc1 (configuration not stated)	100%	35%	0%	–	0.001 µg/mL (≈ 0.0033 µM)
Fc1ccc(C2COC(c3c(F)cccc3F)=N2)cc1 (configuration not stated)	85%	85%	10%	–	0.1 µg/mL (≈ 0.361 µM)
Fc1cccc(F)c1C1=NC(c2ccc(Cl)cc2)CO1 (configuration not stated)	0%	0%	60%	–	0.001 µg/mL (≈ 0.0034 µM)
CC(C)c1ccc(C2COC(c3c(F)cccc3F)=N2)cc1 (configuration not stated)	100%	0%	60%	–	0.001 µg/mL (≈ 0.00332 µM)
CCCCc1ccc(C2COC(c3c(F)cccc3F)=N2)cc1 (configuration not stated)	100%	0%	10%	–	< 0.001 µg/mL
CC(C)Cc1ccc(C2COC(c3c(F)cccc3F)=N2)cc1 (configuration not stated)	100%	60%	0%	–	< 0.001 µg/mL
CC(C)(C)c1ccc(C2COC(c3c(F)cccc3F)=N2)cc1 (configuration not stated)	100%	0%	60%	–	< 0.001 µg/mL
CCCCCCc1ccc(C2COC(c3c(F)cccc3F)=N2)cc1 (configuration not stated)	100%	10%	0%	–	< 0.001 µg/mL
CCCCCCCCc1ccc(C2COC(c3c(F)cccc3F)=N2)cc1 (configuration not stated)	100%	85%	0%	–	< 0.001 µg/mL
CCCCCCCCCCc1ccc(C2COC(c3c(F)cccc3F)=N2)cc1 (configuration not stated)	85%	100%	0%	–	< 0.001 µg/mL

Structure (SMILES)	mortality at 500 ppm [1]	mortality at 500 ppm [2]	mortality at 500 ppm [3]	mortality at 1000 ppm [4]	LC50 [5]
CCCCCCCCCCCCc1ccc(C2COC(c3c(F)cccc3F)=N2)cc1 (configuration not stated)	85%	100%	0%	–	< 0.001 µg/mL
CCCCCCCCCCCCCCCc1ccc(C2COC(c3c(F)cccc3F)=N2)cc1 (configuration not stated)	0%	85%	0%	–	0.001 µg/mL (≈ 0.00213 µM)
CC(C)Oc1ccc(C2COC(c3c(F)cccc3F)=N2)cc1 (configuration not stated)	100%	0%	0%	–	0.001 µg/mL (≈ 0.00315 µM)
CCCCOc1ccc(C2COC(c3c(F)cccc3F)=N2)cc1 (configuration not stated)	100%	0%	0%	–	< 0.001 µg/mL
CCCCCCCCOc1ccc(C2COC(c3c(F)cccc3F)=N2)cc1 (configuration not stated)	85%	60%	0%	–	< 0.001 µg/mL
CCCCCCCCCCOc1ccc(C2COC(c3c(F)cccc3F)=N2)cc1 (configuration not stated)	100%	100%	10%	–	< 0.001 µg/mL
CCCCCCCCCCCCCOc1ccc(C2COC(c3c(F)cccc3F)=N2)cc1 (configuration not stated)	85%	35%	0%	–	0.001 µg/mL (≈ 0.00219 µM)
Cc1ccccc1C1COC(c2c(F)cccc2F)=N1 (configuration not stated)	0%	0%	10%	–	10 µg/mL (≈ 36.6 µM)
CCc1ccccc1C1COC(c2c(F)cccc2F)=N1 (configuration not stated)	0%	0%	60%	–	1 µg/mL (≈ 3.48 µM)
COc1ccccc1C1COC(c2c(F)cccc2F)=N1 (configuration not stated)	0%	0%	10%	–	10 µg/mL (≈ 34.6 µM)
CCOc1ccccc1C1COC(c2c(F)cccc2F)=N1 (configuration not stated)	0%	10%	100%	–	10 µg/mL (≈ 33 µM)
Fc1ccccc1C1COC(c2c(F)cccc2F)=N1 (configuration not stated)	60%	10%	35%	–	1 µg/mL (≈ 3.61 µM)
Fc1cccc(F)c1C1=NC(c2ccccc2Cl)CO1 (configuration not stated)	100%	35%	85%	–	0.1 µg/mL (≈ 0.34 µM)
Cc1cccc(C2COC(c3c(F)cccc3F)=N2)c1 (configuration not stated)	0%	0%	0%	–	10 µg/mL (≈ 36.6 µM)
CCc1cccc(C2COC(c3c(F)cccc3F)=N2)c1 (configuration not stated)	0%	0%	60%	–	10 µg/mL (≈ 34.8 µM)
COc1cccc(C2COC(c3c(F)cccc3F)=N2)c1 (configuration not stated)	0%	0%	0%	–	1 µg/mL (≈ 3.46 µM)
Fc1cccc(C2COC(c3c(F)cccc3F)=N2)c1 (configuration not stated)	0%	0%	60%	–	1 µg/mL (≈ 3.61 µM)
Fc1cccc(F)c1C1=NC(c2cccc(Cl)c2)CO1 (configuration not stated)	0%	0%	0%	–	1 µg/mL (≈ 3.4 µM)
Cc1ccc(C2COC(c3c(F)cccc3F)=N2)cc1 (configuration not stated)	100%	0%	60%	–	0.1 µg/mL (≈ 0.366 µM)
Clc1cccc(Cl)c1C1=NC(c2ccccc2)CO1 (configuration not stated)	10%	10%	0%	0%	1 µg/mL (≈ 3.42 µM)
FC(F)(F)c1ccccc1C1=NC(c2ccccc2)CO1 (configuration not stated)	10%	35%	0%	0%	100 µg/mL (≈ 343 µM)
Clc1ccc(C2=NC(c3ccccc3)CO2)c(Cl)c1 (configuration not stated)	0%	10%	0%	10%	10 µg/mL (≈ 34.2 µM)
Clc1ccc(Cl)c(C2=NC(c3ccccc3)CO2)c1 (configuration not stated)	0%	35%	0%	0%	100 µg/mL (≈ 342 µM)
Fc1cccc(F)c1C1=NC(c2ccccc2)CO1 (configuration not stated)	100%	0%	35%	0%	1 µg/mL (≈ 3.86 µM)
COc1cccc(C2=NC(c3ccccc3)CO2)c1 (configuration not stated)	0%	0%	0%	0%	> 1000 µg/mL
O=[N+]([O-])c1ccccc1C1=NC(c2ccccc2)CO1 (configuration not stated)	0%	0%	0%	10%	100 µg/mL (≈ 373 µM)
CCOc1cc(C(C)(C)C)ccc1C1COC(c2c(F)cccc2F)=N1 (configuration not stated) [ETOXAZOLE]	100%	100%	100%	–	0.001 µg/mL (≈ 0.00278 µM)
